Data on 1 molecule can be found in patent US12295951B2, “Compounds for use in a method of treating or preventing neurological and/or psychiatric disorders” (The Beckley Foundation, priority 2019, dated 2025).

One assay has as its system Wistar Rats. The experiment in a line: Novel object preference test in rats. Type of assay: in vivo, rat. The note with it: for novel object preference: tested days after administration. As for the experimental part: The effects of the test compound on cognitive functions in rodents, in particular on memory and learning capacity, were investigated using a novel object preference test (sometimes called “novel object recognition task”) according to the experimental design depicted in FIG. 1A. More specifically, the novel object preference test was carried out as follows:
Wistar Rats (outbred albino rats; Janvier Labs) sorted in different age groups, i.e. young (about 2 months), adult (about 9 months) and old (about 12-18 months), were administered with a saline solution (sodium chloride; 0.9% in water) or an aqueous solution of the test compound (LSD) by intraperitoneal injection (dose: 0.13 mg/kg).
Before the injection the animals were housed with other animals, and after the injection of the saline or test compound the animals were housed individually. For ten hours following the administration, the animals were video-recorded and stayed alone during the acute effects of the test compound (or saline). Then, the animals were allowed to recover for a period of 3 or 9 days.
After recovery, the animals were individually placed in an experiment arena (45×45×45 cm) once a day for 10 minutes over a period of 3 days (acclimatization session). The experiment arena as used herein typically includes two 3D printed bases located on the arena's floor 10 cm apart from each other, which are intended for mounting and fixing the test objects. However, said bases are empty during the acclimatization session.
Then, the 3D printed bases were mounted with the same number (i.e. 2) and type of objects (identical LEGO™ pieces each having 12 edges and 12 vertices). The animals were individually placed in the experiment arena and trained for 7 minutes (training session). At the onset of the training session, the animals were individually placed facing the same wall of the arena, with their backs to the objects.
The animals were removed from the arena and allowed to rest for 30 minutes. In the meantime, one of the objects was replaced by a new object having the same dimensions (height and base) as the previous object but a different shape (LEGO™ piece, 14 edges and 14 vertices). The animals were individually placed in the experiment arena for 3 minutes, and their preference for the novel object was evaluated by determining the time spent by the respective animals to explore the novel object (test session; FIG. 1B). At the onset of the test, the animals were individually placed facing the same wall of the arena, with their backs to the objects in a similar manner as during the training session.

For another assay, the system named is Old animals (rats). Put plainly: Enriched environment test (LSD plus cognitive training) with novel object preference in old rats. It is filed as in vivo, rat. The following applies: 0.13 mg/kg for 1 day or 3 consecutive days, then enriched environment 6 days (3 h per day). As for the experimental part: The potential of the test compound combined with a cognitive training to rescue cognitive functions (called “enriched environment”) was evaluated in old animals according to the experimental design depicted in FIG. 3A. More specifically, the enriched environment test was carried out as follows:
Old animal (about 12-18 months) were administered with saline (control group) or 0.13 mg/kg of test compound (LSD) for 1 day or 3 consecutive days, followed by exposure to an enriched environment for 6 consecutive days (3 hours each day). The enriched environment used herein typically consists of card boxes with 8 different rooms, wherein it is possible to find a variety of objects such as PVC tubes, toilet paper cardboard tubes or wood objects so as to stimulate the exploratory behavior. The animals were allowed to explore the enriched environment freely in groups of 3 to 5 animals. The effects of the test compound followed by the enriched environment were analyzed using one-way ANOVA, followed by Tukey HSD. The statistical analyses were performed using open source programming language R (version 3.6.0). The Mann-Whitney U test was used to compare the performance of old animals exposed to the enriched environment to that of old animals treated with saline and unexposed to the enriched environment.

A further assay relates to healthy human subjects. The experiment in a line: Two-dimensional visuospatial location (memory) task in humans. It is filed as in vivo. The note with it: single oral dose 50 μg (one subject 67.5 μg), final recall about 24 h after learning. How it is done: The effects of the test compound (LSD) on cognitive functions in humans—e.g. memory, learning capacity—were investigated by means of a two-dimensional (2D) visuospatial location task in accordance with the experimental design depicted in FIG. 4A. Specifically, the visuospatial location task was carried out as follows:
Thirteen healthy human subjects learned the locations of 15 card pairs taking the test compound (LSD) or placebo in a two-run cross-over open-label design separated by two weeks. Seven subjects received 50 μg of test compound (orally) in the first run and placebo in the second run of the test. Six subjects received placebo in the first run and 50 μg of test compound (orally) in the second run of the test, except for one subject who received 67.5 μg of test compound in the second run. […]
For the two experimental runs, two parallel versions (versions A and B, respectively) of the task (matrix), each showing different pictures (card pairs) at different locations, were used. […] About 24 hours after the learning session, final recall of the memory task was evaluated in a single recall run (recall task). […] The percentage of correctly recalled card locations at final recall relative to the number of correct card locations during the last immediate recall run at learning was determined as the memory performance. […]

For assay [1], the system named is brain-derived neurotrophic factor (BDNF). The experiment in a line: BDNF blood serum levels in healthy volunteers (ELISA). It is filed as in vivo, human. The following applies: for BDNF AUC levels compared to placebo / Peak BDNF levels: serum; for BDNF AUC levels compared to placebo: 0-6 h. As for the experimental part:
The present double-blind placebo-controlled, within-subjects study aimed to investigate whether low doses (0, 5, 10, and 20 mcg) of LSD affect brain-derived neurotrophic factor (BDNF) blood levels in healthy volunteers. Blood samples were collected every two hours over a six-hour period, and BDNF levels were determined afterwards in blood serum.
Twenty-four recreational psychedelic users were included in this study. Prior to inclusion, participants underwent medical screening including standard blood chemistry, hematology and urinalysis. Inclusion criteria were written informed consent; age 18-40 years; previous experience with a psychedelic drug, but not within the past three months; proficient knowledge of the English language; good physical health; free from psychotropic medication; BMI between 18-28 kg/m^2. Exclusion criteria were history of drug abuse or addiction as assessed using the DSM-IV criteria; history of psychiatric and neurological disorders; previous experience with serious side effects to psychedelic drugs (anxiety or panic attacks); cardiovascular abnormalities; hypertension; psychotic disorder in first-degree relatives; tobacco smoking (>20 cigarettes/day; excessive alcohol (>20 alcoholic consumptions/week); pregnancy or lactation.
LSD doses used were 5, 10, and 20 mcg LSD base. LSD doses were dissolved in ethanol (96% Vol) resulting in a 1 mL volume and the placebo solution consisted of 1 mL of ethanol only. Test days were scheduled with a minimum of five days in between doses. A test day started at 9:00 AM with a screen for the presence of drugs of abuse in urine (THC/opiates/cocaine/amphetamines/methamphetamines), and alcohol in breath. Women were submitted to a urine pregnancy test. When tests were negative, a venous catheter was placed to draw blood and LSD or placebo was administered orally at 10:00 AM. The study was conducted according to the code of ethics on human experimentation established by the declaration of Helsinki (1964) and the World Medical Association (2013).
Blood samples were taken at −0.5 h, +2 h, +4 h and +6 h relative to drug administration; samples were centrifuged, and serum was transferred into a clean tube and frozen subsequently at −20° C. until analysis. BDNF determination was assessed using an ELISA kit (Biosensis Mature BDNF Rapid ELISA kit: human, mouse, rat; Thebarton, Australia) as described by Akinomoto et al. in Behavioural Brain Research 2019, 359, 342-352.
Therefore, only complete within-subjects (WS) cases entered analyses, using the statistical program SPSS (version 25.0). Non-parametric bootstrapped paired-samples t-tests with trapezoidal calculated AUC's as dependent variable were used for 5 mcg (N=10), 10 mcg (N=9), and 20 mcg (N=8), and corresponding placebo. Furthermore, LSD-placebo contrasts were examined using BDNF serum levels at 0 h, +2 h, +4 h and +6 h after dose administration using non-parametric bootstrapped paired samples t-tests. Lastly, to examine time effects per dose, non-parametric bootstrapped repeated measures ANOVA (0 h, +2 h, +4 h, and +6 h) was used, with subsequent non-parametric bootstrapped paired samples t-tests.

Molecules are shown by their SMILES.

Take `CCN(CC)C(=O)[C@@H]1C=C2c3cccc4[nH]cc(c34)C[C@H]2N(C)C1` [LSD, (D)-lysergic acid diethylamide]: the novel object preference entry in the assay with Wistar Rats (adult rats (about 9 months), 0.13 mg/kg i.p., saline baseline about 40%) was “about 60%”; in the assay with Wistar Rats (young rats (about 2 months), 0.13 mg/kg i.p., saline baseline about 60%), “about 80%”. The “novel object preference (effect vs saline)” value was “significantly increased” in the assay with Wistar Rats (adult rats, FIG. 2); “not significant” in the assay on Wistar Rats (old rats (about 12-18 months), 0.13 mg/kg i.p.); “significantly increased” in the assay on Wistar Rats (young rats, FIG. 2). Besides, the “cognitive functions / novel object preference vs control group” value in the assay with Old animals (rats) was “significant enhancement”; in the assay on Old animals (rats) (listed as test compound), “significant increase”. For the same molecule, the entries for the “performance in the 2D visuospatial location task vs placebo” value in the assay on healthy human subjects and in the assay with healthy human subjects (listed as test compound) were “significantly improved” and “significantly increased”, respectively. Also, the “BDNF AUC levels compared to placebo” value is reported as “significantly increased” in assay [1] (5 mcg LSD oral, Z=−2.29, p=0.02); “significantly increased” in assay [1] (10 mcg LSD oral, Z=−2.67, p<0.01); “significantly increased” in assay [1] (20 mcg LSD oral, Z=−2.52, p<0.01). Further, the “Peak BDNF levels” value in assay [1] (5 mcg LSD, peak at four hours after administration) was found to be 8.95 ng/mL; in assay [1] (10 mcg LSD, peak at six hours after administration), 8.28 ng/mL. Besides, the “BDNF levels compared to placebo” value in assay [1] (+4 h after 5 mcg LSD, Z=−2.80, p<0.01) is given as “higher”; in assay [1] (+4 h after 10 mcg LSD, Z=−1.95, p=0.05) it was “higher”; in assay [1] (+6 h after 5 mcg LSD, Z=−2.29, p<0.01), “higher”; in assay [1] (+6 h after 20 mcg LSD, Z=−2.52, p=0.01), “higher”.
